This is an account of results in ChEMBL document CHEMBL3580624 (J Nat Prod, 2015).

The source made the active and inactive calls. The calls are words filed in the database; no cut-off is given here.

One assay deals with T1, Prolyl endopeptidase (Homo sapiens, UniProt P48147).
T1 sequence (P48147 whole entry): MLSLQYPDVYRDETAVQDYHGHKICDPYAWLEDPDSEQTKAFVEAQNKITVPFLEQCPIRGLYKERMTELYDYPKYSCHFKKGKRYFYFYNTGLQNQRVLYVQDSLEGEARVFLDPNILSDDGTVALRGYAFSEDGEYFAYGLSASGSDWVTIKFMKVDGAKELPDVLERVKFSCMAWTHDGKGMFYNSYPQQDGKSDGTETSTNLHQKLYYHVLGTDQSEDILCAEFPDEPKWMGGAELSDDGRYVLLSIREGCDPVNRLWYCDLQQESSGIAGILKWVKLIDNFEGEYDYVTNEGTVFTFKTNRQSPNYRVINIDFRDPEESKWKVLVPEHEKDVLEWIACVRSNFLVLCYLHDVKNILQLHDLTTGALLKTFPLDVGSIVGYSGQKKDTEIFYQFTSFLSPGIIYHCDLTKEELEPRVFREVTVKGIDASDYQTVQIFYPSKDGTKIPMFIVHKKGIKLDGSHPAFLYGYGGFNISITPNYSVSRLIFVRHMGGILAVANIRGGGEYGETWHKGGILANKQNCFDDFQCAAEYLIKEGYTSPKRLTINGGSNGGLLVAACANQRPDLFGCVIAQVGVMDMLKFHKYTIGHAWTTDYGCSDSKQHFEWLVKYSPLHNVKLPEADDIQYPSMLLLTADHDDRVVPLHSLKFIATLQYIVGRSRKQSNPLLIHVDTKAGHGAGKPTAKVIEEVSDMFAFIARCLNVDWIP
The assay can be described thus: Inhibition of human recombinant POP pre-incubated for 15 mins before Z-Gly-Pro-AMC substrate addition and further incubated for 1 hr by fluorimetry.

The next assay is filed under the species Bos taurus. The assay can be described thus: Inhibition of bovine trypsin at 25 uM pre-incubated for 15 mins before Bz-Arg-AMC-HCl substrate addition and further incubated for 1 hr by fluorimetry.
Assay [1] concerns the target Chymotrypsinogen A (Bos taurus) (UniProt P00766). In words: Inhibition of bovine alpha-chymotrypsin at 75 uM pre-incubated for 15 mins before Ala-Ala-Phe-AMC substrate addition and further incubated for 1 hr by fluorimetry.

In the case of `CC[C@H](C)[C@@H]1NC(=O)[C@@H]2CCCN2C(=O)[C@H](CC(C)C)NC(=O)CNC(=O)[C@H](CC(N)=O)NC(=O)[C@H](CCCNC(=N)N)NC(=O)[C@H]([C@@H](C)O)NC(=O)[C@@H]2CSSC[C@@H]3NC(=O)[C@H]([C@@H](C)O)NC(=O)CNC(=O)CNC(=O)[C@H](C(C)C)NC(=O)[C@@H]4CSSC[C@H](NC(=O)[C@H]([C@@H](C)O)NC(=O)[C@H](CSSC[C@H](NC1=O)C(=O)NCC(=O)N[C@@H](CCC(=O)O)C(=O)N[C@@H](CO)C(=O)N4)NC(=O)CNC(=O)[C@@H]1CCCN1C(=O)[C@H]([C@@H](C)O)NC(=O)[C@H](CC(N)=O)NC3=O)C(=O)N[C@@H]([C@@H](C)O)C(=O)N[C@@H](Cc1c[nH]c3ccccc13)C(=O)N1CCC[C@H]1C(=O)N[C@@H](C(C)C)C(=O)N2` (stereo in doubt; form 2) [listing 1 of 2 here], the half-maximal inhibitory concentration (IC50) at Prolyl endopeptidase was 8.6 µM. As to `CC[C@H](C)[C@@H]1NC(=O)[C@@H]2CCCN2C(=O)[C@H](CC(C)C)NC(=O)CNC(=O)[C@H](CC(N)=O)NC(=O)[C@H](CCCNC(=N)N)NC(=O)[C@H]([C@@H](C)O)NC(=O)[C@@H]2CSSC[C@@H]3NC(=O)[C@H]([C@@H](C)O)NC(=O)CNC(=O)CNC(=O)[C@H](C(C)C)NC(=O)[C@@H]4CSSC[C@H](NC(=O)[C@H]([C@@H](C)O)NC(=O)[C@H](CSSC[C@H](NC1=O)C(=O)NCC(=O)N[C@@H](CCC(=O)O)C(=O)N[C@@H](CO)C(=O)N4)NC(=O)CNC(=O)[C@@H]1CCCN1C(=O)[C@H]([C@@H](C)O)NC(=O)[C@H](CC(N)=O)NC3=O)C(=O)N[C@@H]([C@@H](C)O)C(=O)N[C@@H](Cc1c[nH]c3ccccc13)C(=O)N1CCC[C@H]1C(=O)N[C@@H](C(C)C)C(=O)N2` (stereo in doubt; form 1), the IC50 at Prolyl endopeptidase was 9.57 µM. With `CC[C@H](C)[C@@H]1NC(=O)[C@@H]2CCCN2C(=O)[C@H](CC(C)C)NC(=O)CNC(=O)[C@H](CC(N)=O)NC(=O)[C@H](CCCNC(=N)N)NC(=O)[C@H]([C@@H](C)O)NC(=O)[C@@H]2CSSC[C@@H]3NC(=O)[C@H]([C@@H](C)O)NC(=O)CNC(=O)CNC(=O)[C@H](C(C)C)NC(=O)[C@@H]4CSSC[C@H](NC(=O)[C@H]([C@@H](C)O)NC(=O)[C@H](CSSC[C@H](NC1=O)C(=O)NCC(=O)N[C@@H](CCC(=O)O)C(=O)N[C@@H](CO)C(=O)N4)NC(=O)CNC(=O)[C@@H]1CCCN1C(=O)[C@H]([C@@H](C)O)NC(=O)[C@H](CC(N)=O)NC3=O)C(=O)N[C@@H]([C@@H](C)O)C(=O)N[C@@H](Cc1c[nH]c3ccccc13)C(=O)N1CCC[C@H]1C(=O)N[C@@H](C(C)C)C(=O)N2` (stereo in doubt; form 2) [listing 2 of 2 here], the inhibition result (in the assay filed under Bos taurus; in assay [1]) was “inactive” each time.
